Assay results as given in patent US11236046B2, “Substituted heterocyclic sulfonamide compounds useful as TRPA1 modulators” (Genentech, Inc., priority 2013, dated 2022).

Target: human TRPA1 (Homo sapiens (Human), UniProt O75762)
Assay: IC50 determination on the human TRPA1 channel, calcium fluorescence (Hamamatsu FDSS plate reader)
Type: cell-based
Conditions: CHO cells expressing human TRPA1; block of cinnamaldehyde induced calcium influx; 20 minutes compound incubation; Hill coefficient fixed to 1.5; read-out: hTRPA1 AUC IC50
Procedure: IC50s (effective concentration) of compounds on the human TRPA1 channel were determined using a Hamamatsu FDSS fluorescence plate reader. CHO cells expressing human TRPA1 were plated into 384-well plates, incubated overnight at 37 C, and loaded with BD calcium indicator dye for 1 hr at 37° C. followed by 15 minutes. at room temperature. The assay buffer was Hank's Balanced Salt Solution (HBSS) containing 20 mM HEPES (pH readjusted to 7.4) along with 0.02% BSA.
Following dye load and plate cool down, compounds were added to the cells using the FDSS while monitoring fluorescence to determine whether any of the test compounds have TRPA1 agonist activity. Plates were then incubated with compound for 20 minutes at room temperature prior to adding agonist. Following this incubation, […] cinnamaldehyde was added to all wells of the plate and block of this cinnamaldehyde induced calcium influx was measured.
Fixing the Hill coefficient will generally reduce variability of the IC50 determination. The IC50s were examined by eye to make sure the MIN and MAX points were set correctly prior to validation of the results.

Sequence of human TRPA1 (O75762 whole entry): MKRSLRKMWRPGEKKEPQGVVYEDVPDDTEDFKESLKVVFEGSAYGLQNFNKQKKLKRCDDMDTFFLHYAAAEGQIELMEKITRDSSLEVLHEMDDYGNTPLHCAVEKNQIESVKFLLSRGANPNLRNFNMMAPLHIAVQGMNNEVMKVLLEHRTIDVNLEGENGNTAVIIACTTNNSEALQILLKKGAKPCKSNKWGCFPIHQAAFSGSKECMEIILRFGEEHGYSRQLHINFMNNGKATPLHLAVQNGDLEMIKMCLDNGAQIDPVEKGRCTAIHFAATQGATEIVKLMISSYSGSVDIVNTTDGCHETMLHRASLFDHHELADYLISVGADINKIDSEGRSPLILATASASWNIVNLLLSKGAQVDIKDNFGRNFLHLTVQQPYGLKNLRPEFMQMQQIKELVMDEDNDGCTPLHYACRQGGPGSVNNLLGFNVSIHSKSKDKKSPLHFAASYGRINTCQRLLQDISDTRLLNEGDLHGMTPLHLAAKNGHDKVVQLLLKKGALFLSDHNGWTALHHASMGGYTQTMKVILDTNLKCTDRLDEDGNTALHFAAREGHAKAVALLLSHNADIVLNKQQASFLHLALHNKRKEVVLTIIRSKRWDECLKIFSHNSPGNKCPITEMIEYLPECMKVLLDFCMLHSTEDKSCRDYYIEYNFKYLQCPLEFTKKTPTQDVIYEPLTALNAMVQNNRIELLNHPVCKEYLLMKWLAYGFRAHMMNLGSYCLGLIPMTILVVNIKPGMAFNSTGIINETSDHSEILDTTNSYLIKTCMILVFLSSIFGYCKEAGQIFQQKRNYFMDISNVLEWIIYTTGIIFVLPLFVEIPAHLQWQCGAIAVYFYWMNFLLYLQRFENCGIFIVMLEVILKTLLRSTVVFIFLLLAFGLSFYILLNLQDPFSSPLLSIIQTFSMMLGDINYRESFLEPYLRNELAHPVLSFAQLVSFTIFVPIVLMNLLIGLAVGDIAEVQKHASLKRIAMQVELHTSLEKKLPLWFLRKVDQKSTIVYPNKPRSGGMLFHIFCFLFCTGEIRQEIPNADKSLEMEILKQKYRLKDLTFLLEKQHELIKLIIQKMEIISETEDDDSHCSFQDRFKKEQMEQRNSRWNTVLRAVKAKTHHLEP

| SMILES | IC50 [nM] |
| --- | --- |
| O=C(NCc1cc(-c2ccc(C(F)(F)F)nc2)ncn1)[C@@H]1C[C@@H](F)CN1S(=O)(=O)c1ccc(F)c(F)c1 [Example 25, (2S,4R)-1-(3,4-difluorophenylsulfonyl)-4-fluoro-N-((6-(6-(trifluoromethyl)pyridin-3-yl)pyrimidin-4-yl)methyl)pyrrolidine-2-carboxamide] | 126 |
| O=C(NCc1cc(-c2ccc(C(F)(F)F)cc2)ncn1)[C@@H]1C[C@@H](F)CN1S(=O)(=O)c1ccc(F)c(F)c1 [Example 26, (2S,4R)-1-(3,4-difluorophenylsulfonyl)-4-fluoro-N-((6-(4-(trifluoromethyl)phenyl)pyrimidin-4-yl)methyl)pyrrolidine-2-carboxamide] | 30 |
| O=C(NCc1cc(-c2ccc(C(F)(F)F)nc2)ncn1)[C@@H]1C[C@@H](F)CN1S(=O)(=O)c1cncc(F)c1 [Example 27, (2S,4R)-4-fluoro-1-(5-fluoropyridin-3-ylsulfonyl)-N-((6-(6-(trifluoromethyl)pyridin-3-yl)pyrimidin-4-yl)methyl)pyrrolidine-2-carboxamide] | 3000 |
| O=C(NCc1cc(-c2ccc(C(F)(F)F)cc2)ncn1)[C@@H]1C[C@@H](F)CN1S(=O)(=O)c1cncc(F)c1 [Example 28, (2S,4R)-4-fluoro-1-(5-fluoropyridin-3-ylsulfonyl)-N-((6-(4-(trifluoromethyl)phenyl)pyrimidin-4-yl)methyl)pyrrolidine-2-carboxamide] | 229 |
| O=C(NCc1cc(-c2ccc(SC(F)(F)F)cc2)ncn1)[C@@H]1C[C@@H](F)CN1S(=O)(=O)c1ccc(F)cc1 [Example 29, (2S,4R)-4-fluoro-1-(4-fluorophenylsulfonyl)-N-((6-(4-(trifluoromethylthio)phenyl)pyrimidin-4-yl)methyl)pyrrolidine-2-carboxamide] | 32 |
| COC[C@@]1(C(=O)NCc2cc(-c3ccc(C(F)(F)F)nc3)ncn2)CCCN1S(=O)(=O)c1ccc(F)cc1 [Example 30, (R)-1-(4-fluorophenylsulfonyl)-2-(methoxymethyl)-N-((6-(6-(trifluoromethyl)pyridin-3-yl)pyrimidin-4-yl)methyl)pyrrolidine-2-carboxamide] | 252 |
| O=C(NCc1cc(-c2ccc(C(F)(F)F)nc2)ncn1)[C@]1(C(F)F)CCCN1S(=O)(=O)c1ccc(F)cc1 [Example 31, (S)-2-(difluoromethyl)-1-(4-fluorophenylsulfonyl)-N-((6-(6-(trifluoromethyl)pyridin-3-yl)pyrimidin-4-yl)methyl)pyrrolidine-2-carboxamide] | 29 |
| N#C[C@@]1(C(=O)NCc2cc(-c3ccc(C(F)(F)F)nc3)ncn2)CCCN1S(=O)(=O)c1ccc(F)cc1 [Example 32, (R)-2-cyano-1-(4-fluorophenylsulfonyl)-N-((6-(6-(trifluoromethyl)pyridin-3-yl)pyrimidin-4-yl)methyl)pyrrolidine-2-carboxamide] | 867 |
| O=C(NCc1cc(-c2ccc(C(F)(F)F)cc2)ncn1)[C@@H]1[C@H]2CC[C@H](C2)N1S(=O)(=O)c1ccc(F)cc1 [Example 33, (1R,3S,4S)-2-(4-fluorophenylsulfonyl)-N-((6-(4-(trifluoromethyl)phenyl)pyrimidin-4-yl)methyl)-2-azabicyclo[2.2.1]heptane-3-carboxamide] | 23 |
| O=C(NCc1cc(-c2ccc(C(F)(F)F)nc2)ncn1)[C@@H]1[C@H]2CC[C@H](C2)N1S(=O)(=O)c1ccc(F)cc1 [Example 34, (1R,3S,4S)-2-(4-fluorophenylsulfonyl)-N-((6-(6-(trifluoromethyl)pyridin-3-yl)pyrimidin-4-yl)methyl)-2-azabicyclo[2.2.1]heptane-3-carboxamide] | 40 |
| O=C(NCc1cc(-c2ccc(C(F)(F)F)nc2)ncn1)[C@@H]1[C@@H](F)CCN1S(=O)(=O)c1ccc(F)cc1 [Example 35, (2R,3S)-3-fluoro-1-(4-fluorophenylsulfonyl)-N-((6-(6-(trifluoromethyl)pyridin-3-yl)pyrimidin-4-yl)methyl)pyrrolidine-2-carboxamide] | 23 |
| O=C(NCc1cc(-c2ccc(C(F)(F)F)nc2)ncn1)[C@@H]1[C@H](F)CCN1S(=O)(=O)c1ccc(F)cc1 [Example 36, (2R,3R)-3-fluoro-1-(4-fluorophenylsulfonyl)-N-((6-(6-(trifluoromethyl)pyridin-3-yl)pyrimidin-4-yl)methyl)pyrrolidine-2-carboxamide] | 120 |
| O=C(NCc1cc(N2CCC(C(F)(F)F)CC2)c(F)cn1)[C@@H]1C[C@@H](F)CN1S(=O)(=O)c1ccc(F)cc1 [Example 37, (2S,4R)-4-fluoro-N-((5-fluoro-4-(4-(trifluoromethyl)piperidin-1-yl)pyridin-2-yl)methyl)-1-(4-fluorophenylsulfonyl)pyrrolidine-2-carboxamide] | 21 |

Tested on: not listed separately
Assay: in vivo rat pharmacokinetic (PK) studies, plasma clearance
Conditions: not given

| SMILES | Rat PK Clp [mL/min/kg] |
| --- | --- |
| O=C(NCc1cc(-c2ccc(C(F)(F)F)nc2)ncn1)[C@@H]1C[C@@H](F)CN1S(=O)(=O)c1ccc(F)cc1 [(2S,4R)-4-fluoro-1-(4-fluorophenyl)sulfonyl-N-[[6-[6-(trifluoromethyl)-3-pyridyl]pyrimidin-4-yl]methyl]pyrrolidine-2-carboxamide] | 15 |

Same assay, conditions: compared with related compounds

| SMILES | stability in in vivo rat PK studies (clearance from the blood), in words |
| --- | --- |
| O=C(NCc1cc(-c2ccc(C(F)(F)F)nc2)ncn1)[C@@H]1C[C@@H](F)CN1S(=O)(=O)c1ccc(F)cc1 [(2S,4R)-4-fluoro-1-(4-fluorophenyl)sulfonyl-N-[[6-[6-(trifluoromethyl)-3-pyridyl]pyrimidin-4-yl]methyl]pyrrolidine-2-carboxamide] | highest stability (slowest clearance) |

Same assay, conditions: plasma, read-out: Rat PK Clp

| SMILES | clearance [mL/min/kg] |
| --- | --- |
| O=C(NCc1cc(-c2ccc(C(F)(F)F)nc2)ncn1)[C@@H]1[C@@H](F)CCN1S(=O)(=O)c1ccc(F)cc1 [(2R,3S)-3-fluoro-1-(4-fluorophenyl)sulfonyl-N-[[6-[6-(trifluoromethyl)-3-pyridyl]pyrimidin-4-yl]methyl]pyrrolidine-2-carboxamide] | 101 |
| O=C(NCc1cc(-c2ccc(C(F)(F)F)nc2)ncn1)[C@@H]1CCCN1S(=O)(=O)c1ccc(F)cc1 [(2S)-1-(4-fluorophenyl)sulfonyl-N-[[6-[6-(trifluoromethyl)-3-pyridyl]pyrimidin-4-yl]methyl]pyrrolidine-2-carboxamide] | 98 |
| O=C(NCc1cc(-c2ccc(C(F)(F)F)nc2)ncn1)[C@@H]1CC(F)(F)CN1S(=O)(=O)c1ccc(F)cc1 [(2S)-4,4-difluoro-1-(4-fluorophenyl)sulfonyl-N-[[6-[6-(trifluoromethyl)-3-pyridyl]pyrimidin-4-yl]methyl]pyrrolidine-2-carboxamide] | 30 |
| N#C[C@@H]1C[C@@H](C(=O)NCc2cc(-c3ccc(C(F)(F)F)cc3)ncn2)N(S(=O)(=O)c2ccc(F)cc2)C1 [(2S,4R)-4-cyano-1-(4-fluorophenyl)sulfonyl-N-[[6-[4-(trifluoromethyl)phenyl]pyrimidin-4-yl]methyl]pyrrolidine-2-carboxamide] | 7.6 |
| C[C@@]1(C(=O)NCc2cc(-c3ccc(C(F)(F)F)nc3)ncn2)C[C@@H](F)CN1S(=O)(=O)c1ccc(F)cc1 [(2S,4R)-4-fluoro-1-(4-fluorophenyl)sulfonyl-2-methyl-N-[[6-[6-(trifluoromethyl)-3-pyridyl]pyrimidin-4-yl]methyl]pyrrolidine-2-carboxamide] | 15 |
| C[C@@]1(F)C[C@@H](C(=O)NCc2cc(-c3ccc(C(F)(F)F)nc3)ncn2)N(S(=O)(=O)c2ccc(F)cc2)C1 [(2S,4R)-4-fluoro-1-(4-fluorophenyl)sulfonyl-4-methyl-N-[[6-[6-(trifluoromethyl)-3-pyridyl]pyrimidin-4-yl]methyl]pyrrolidine-2-carboxamide] | 11.3 |
| COc1nc(CNC(=O)[C@@H]2C[C@@H](F)CN2S(=O)(=O)c2ccc(F)cc2)cc(-c2ccc(C(F)(F)F)nc2)n1 [(2S,4R)-4-fluoro-1-(4-fluorophenyl)sulfonyl-N-[[2-methoxy-6-[6-(trifluoromethyl)-3-pyridyl]pyrimidin-4-yl]methyl]pyrrolidine-2-carboxamide] | 16.5 |
| COc1nn(-c2ccc(C(F)(F)F)nc2)cc1CNC(=O)[C@@H]1C[C@@H](F)CN1S(=O)(=O)c1ccc(F)cc1 [(2S,4R)-4-fluoro-1-(4-fluorophenyl)sulfonyl-N-[[3-methoxy-1-[6-(trifluoromethyl)-3-pyridyl]pyrazol-4-yl]methyl]pyrrolidine-2-carboxamide] | 13 |
| O=C(NCc1cc(-c2cnc(C(F)(F)F)nc2)c(F)cn1)[C@@H]1C[C@@H](F)CN1S(=O)(=O)c1ccc(F)cc1 [(2S,4R)-4-fluoro-1-(4-fluorophenyl)sulfonyl-N-[[5-fluoro-4-[2-(trifluoromethyl)pyrimidin-5-yl]-2-pyridyl]methyl]pyrrolidine-2-carboxamide] | 5.9 |
| O=C(NCc1cc(-c2ccc(C(F)(F)F)nc2)nc(-c2ccc(C(F)(F)F)nc2)c1)[C@@H]1C[C@@H](F)CN1S(=O)(=O)c1ccc(F)cc1 [(2S,4R)-N-[[2,6-bis[6-(trifluoromethyl)-3-pyridyl]-4-pyridyl]methyl]-4-fluoro-1-(4-fluorophenyl)sulfonyl-pyrrolidine-2-carboxamide] | 9.1 |
| O=C(NCc1cc(F)cc(-c2cnc(C(F)F)cn2)c1)[C@@H]1C[C@@H](F)CN1S(=O)(=O)c1ccc(F)cc1 [(2S,4R)-N-[[3-[5-(difluoromethyl)pyrazin-2-yl]-5-fluoro-phenyl]methyl] 4-fluoro-1-(4-fluorophenyl)sulfonyl-pyrrolidine-2-carboxamide] | 9.9 |
| O=C(NCc1cc(-c2ccc(OC(F)F)cc2)ncn1)[C@@H]1C[C@@H](F)CN1S(=O)(=O)c1ccc(F)cc1 [(2S,4R)-N-[[6-[4-(difluoromethoxy)phenyl]pyrimidin-4-yl]methyl]-4-fluoro-1-(4-fluorophenyl)sulfonyl-pyrrolidine-2-carboxamide] | 13.2 |
